Test results taken from patent publication US8609656B2, “Heteroarylphenylurea derivative” (Chugai Seiyaku Kabushiki Kaisha, priority 2004, dated 2013).
≈ marks a conversion by molar mass, not a printed value. Structures can show the parent of a compound that is named as a salt.

Experiments:
[1] = target: T1, recombinant Raf-1 protein (activated type GST-Raf-1) (Homo sapiens, UniProt P04049); experiment: RAF-1 enzyme inhibition test (33P incorporation into MEK 1 protein); format: biochemical; settings: 10 μM ATP, GST-MEK1 substrate, 30° C., 45 minutes; read-out: Raf-1 Enzyme Inhibition, 50% Enzyme Inhibition Concentration (IC50 value)
T1 construct: fused on or other part: GST tag fused to Raf-1
T1 sequence (P04049 349-648 limits assumed): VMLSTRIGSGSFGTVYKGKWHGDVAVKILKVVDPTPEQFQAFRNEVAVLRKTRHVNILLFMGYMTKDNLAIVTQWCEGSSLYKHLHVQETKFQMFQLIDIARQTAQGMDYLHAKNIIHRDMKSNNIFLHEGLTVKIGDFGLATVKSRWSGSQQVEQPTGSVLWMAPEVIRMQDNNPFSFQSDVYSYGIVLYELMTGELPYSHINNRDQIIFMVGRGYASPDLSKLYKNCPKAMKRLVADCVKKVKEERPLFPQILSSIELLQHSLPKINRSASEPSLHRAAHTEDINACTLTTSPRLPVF
Method: RAF-1 Enzyme Inhibition Test
With respect to the compounds relating to the present invention and the known compound (BAY 43-9006):
[drawing 660] the Raf-1 protein inhibition activity was measured. The enzymatic reaction was measured by incorporation of ^33P-phosphoric acid into MEK 1 protein by a recombinant Raf-1 protein. The activity was measured by preparing 50 μL of a reaction solution containing a dimethyl sulfoxide solution of the compound relating to the present invention or the compound BAY 43-9006 at a varied concentration [as the final concentration, the reaction solution containing […] of TRIS hydrochloric buffer (pH 7.5), 1 mM of dithiothreitol, 100 mM of sodium chloride, 10 mM of potassium fluoride, 1 mM of sodium vanadate, 10 mM of magnesium chloride, 10 μM of adenosine triphosphate (ATP, containing ^33P-ATP of 12580Bq), 2 μg of GST-MEK1 and 25 ng of an activated type GST-Raf-1]; keeping the reaction solution at 30° C. for 45 minutes; adding 100% trichloroacetic acid to the reaction solution in an amount twice the volume of the reaction solution to precipitate a proteinous component; recovering the precipitate on a glass filter; and measuring the radioactivity of the recovered product. The 50% inhibition concentration (IC50) was obtained from the inhibition ratio to a sample-free reference.
The compound BAYT 43-9006 was prepared on the basis of the description (Example 41) of WO 00/42012.

[2] = Solubility to fasted state simulated intestinal fluid; format: physicochemical; settings: fassif, kinetic from dmso stock, fasted state simulated intestinal fluid (pH 6.5), 37° C.
Method: Method of Measuring Solubility to Fasted State Simulated Intestinal Fluid
To a 96-well plate, 2 μL of a dimethyl sulfoxide solution of the compound relating to the present invention or that of the compound BAY 43-9006 was poured at one time, respectively, and fasted state simulated intestinal fluid (pH 6.5) was added 200 μL by 200 μL, and the plate was shaken at 37° C. for 20 hours. The solution was filtered with a membrane filter and 101 μL of the filtrate was transferred to an UV plate, and 100 μL of a mixed solution of ethanol:water=2:1 was added thereto. On the other hand, as a standard solution, 2 μL of a dimethyl sulfoxide solution was added to a solution containing 4 μL of dimethyl sulfoxide, 400 μL of ethanol and 200 μL of water and the obtained solution was transferred 101 μL by 101 μL to the UV plate and to this UV plate, the simulated fasting bile-containing intestinal juice (pH 6.5) was added 100 μL by 100 μL. The solubility was calculated by the following equation. Solubility=(absorbance of sample solution-blank)/(absorbance of standard solution-blank)×[…]
165 μL is a concentration of the standard solution.
Composition of Fasted State Simulated Intestinal Fluid
Fasted state simulated intestinal fluid was prepared in accordance with E. Galia et al., Pharm. Res., 698, 1998.
To about 90 mL of water, 161 mg of taurocholic acid, 59 mg of L-α-phosphatidylcholine, 0.39 g of potassium dihydrogenphosphate and 0.77 g of potassium chloride were added and the pH of the mixture solution […] and the mixture solution was filtered with a membrane filter.

Structure (SMILES) | IC50 [1] | solubility at 20 h [2]
Cl.Nc1ncc2ncn(-c3ccc(NC(=O)Nc4ccc(Cl)c(C(F)(F)F)c4)cc3)c2n1 [Table 1, Compound 34, 1-[4-(2-Aminopurin-9-yl)phenyl]-3-(4-chloro-3-(trifluoromethyl)phenyl)urea hydrochloride] |  | 34 µg/mL
CN1CCN(Cc2cc(NC(=O)Nc3ccc(-n4c(I)nc5c(N)ncnc54)cc3)cc(C(F)(F)F)c2)CC1 [Table 2, Compound 27] | 0.067 µM | 
CNc1ncnc2c1ncn2-c1ccc(NC(=O)Nc2cc(CCN(C)C)cc(C(F)(F)F)c2)cc1 [Table 2, Compound 71, 1-[3-(2-Dimethylamino-ethyl)-5-(trifluoromethyl)phenyl]-3-[4-(6-(methylamino)purin-9-yl)phenyl]urea] | 0.19 µM | 
COCCOC(=O)Nc1ncnc2c1ncn2-c1ccc(NC(=O)Nc2ccc(Cl)c(C(F)(F)F)c2)cc1 [Table 1, Compound 115, (9-{4-[3-(4-Chloro-3-(tri-fluoromethyl)phenyl)ureido]-phenyl}-9H-purin-6-yl)carbamic acid 2-methoxyethyl ester] |  | 19 µg/mL (≈ 34.6 µM)
CNc1ncnc2c1ncn2-c1ccc(NC(=O)Nc2cc(OC3CCN(C)CC3)cc(C(F)(F)F)c2)cc1 [Table 2, Compound 91, 1-[4-(6-(Methylamino)purin-9-yl)phenyl]-3-[3-(1-methyl-piperidin-4-yloxy)-5-(trifluoromethyl)phenyl]-urea] | 0.27 µM | 
CNc1ncnc2c1ncn2-c1ccc(NC(=O)Nc2ccc(CCCN3CCCC3)c(C(F)(F)F)c2)cc1 [Table 2, Compound 77, 1-[4-(6-(Methylamino)purin-9-yl)phenyl]-3-[4-[3-pyrrolidin-1-yl-propyl]-3-(trifluoromethyl)phenyl]-urea] |  | 34 µg/mL (≈ 63.1 µM)
Nc1ncnc2ncn(-c3ccc(NC(=O)Nc4ccc(Cl)c(C(F)(F)F)c4)cc3)c12 [Table 3, Compound 1, 1-[4-(6-(Aminopurin-7-yl)phenyl)-3-(4-chloro-3-(trifluoromethyl)phenyl)urea hydrochloride] | 0.051 µM | 
CNc1ncnc2c1ncn2-c1ccc(NC(=O)Nc2ccc(CCCN3CCCCC3)c(C(F)(F)F)c2)cc1 [Table 2, Compound 78, 1-[4-(6-(Methylamino)purin-9-yl)phenyl]-3-[4-[3-piperidin-1-yl-propyl]-3-(trifluoromethyl)phenyl]-urea] | 0.14 µM | 
CNc1ncnc2c1ncn2-c1ccc(NC(=O)Nc2cc(CCN3CCOCC3)cc(C(F)(F)F)c2)cc1 [Table 2, Compound 73, 1-[4-(6-(Methylamino)purin-9-yl)phenyl]-3-[3-(2-morpholin-4-yl-ethyl)-5-(trifluoromethyl)phenyl]urea] | 0.084 µM | 
CCc1nc2c(N)ncnc2n1-c1ccc(NC(=O)Nc2cc(CN3CCN(C)CC3)cc(C(F)(F)F)c2)cc1 [Table 2, Compound 32] |  | 175 µg/mL (≈ 316 µM)
CNCCOc1cccc2c1ccn2-c1ccc(NC(=O)Nc2ccc(Cl)c(C(F)(F)F)c2)cc1.Cl [Table 1, Compound 21, 1-(4-Chloro-3-(trifluoromethyl)phenyl)-3-{4-[4-(2-methylamino-ethoxy)-indol-1-yl]phenyl}urea hydrochloride] |  | 24 µg/mL
CN(C)Cc1nc2c(N)ncnc2n1-c1ccc(NC(=O)Nc2ccc(Cl)c(C(F)(F)F)c2)cc1 [Table 2, Compound 12, 1-[4-(6-Amino-8-dimethylamino-methyl-purin-9-yl)phenyl]-3-(4-chloro-3-(trifluoromethyl)-phenyl)urea] |  | 265 µg/mL (≈ 525 µM)
COCCOCCOCC(=O)Nc1ncnc2c1ncn2-c1ccc(NC(=O)Nc2ccc(Cl)c(C(F)(F)F)c2)cc1 [Table 1, Compound 109, N-(9-{4-[3-(4-Chloro-3-(tri-fluoromethyl)phenyl)ureido]-phenyl}-9H-purin-6-yl)-2-[2-(2-methoxyethoxy)ethoxy]acetamide] |  | 39 µg/mL (≈ 64.1 µM)
O=C(Nc1ccc(-n2cnc3c(NCCN4CCOCC4)ncnc32)cc1)Nc1ccc(Cl)c(C(F)(F)F)c1 [Table 2, Compound 11, 1-(4-Chloro-3-(trifluoromethyl)-phenyl)-3-{4-[6-(2-morpholin-4-yl-ethylamino)purin-9-yl]-phenyl}urea] |  | 38 µg/mL (≈ 67.7 µM)
CNc1ncnc2c1nc(OC)n2-c1ccc(NC(=O)Nc2ccc(Cl)c(C(F)(F)F)c2)cc1 [Table 2, Compound 21, 1-(4-Chloro-3-(trifluoromethyl)-phenyl)-3-[4-(8-methoxy-6-(methylamino)purin-9-yl)phenyl]-urea] |  | 120 µg/mL (≈ 244 µM)
CNc1ncnc2c1ncn2-c1ccc(NC(=O)Nc2ccc(CCN3CCN(C(C)C)CC3)c(C(F)(F)F)c2)cc1 [Table 3, Compound 37, 1-{4-[2-(4-Isopropyl-piperazin-1-yl)ethyl]-3-(trifluoromethyl)phenyl}-3-[4-(6-(methylamino)purin-9-yl)phenyl]urea] |  | 193 µg/mL (≈ 332 µM)

The next lines start with the values.

IC50 [1] | solubility at 20 h [2] | Structure (SMILES)
0.015 µM |  | C=Cc1nc2c(NC(=O)NCCC)ncnc2n1-c1ccc(NC(=O)Nc2ccc(Cl)c(C(F)(F)F)c2)cc1 [Table 2, Compound 13, 1-(9-{4-[3-(4-Chloro-3-(tri-fluoromethyl)phenyl)ureido]-phenyl}-8-vinyl-9H-purin-6-yl)-3-propylurea]
 | 149 µg/mL (≈ 290 µM) | CN(C)CCN(C)c1ccc(NC(=O)Nc2ccc(-n3cnc4c(N)ncnc43)cc2)cc1C(F)(F)F [Table 2, Compound 35, 1-[4-(6-Aminopurin-9-yl)phenyl]-3-{4-[(2-dimetylaminoethyl)-methylamino]-3-(trifluoro-methyl)phenyl]urea]
0.13 µM |  | CNc1ncnc2c1ncn2-c1ccc(NC(=O)Nc2cc(CCN3CCCC3)cc(C(F)(F)F)c2)cc1 [Table 3, Compound 31, 1-[4-(6-(Methylamino)purin-9-yl)phenyl]-3-[3-(2-pyrrolidin-1-yl-ethyl)-5-(trifluoromethyl)phenyl]urea]
0.029 µM |  | C=Cc1nc2c(N)ncnc2n1-c1ccc(NC(=O)Nc2ccc(Cl)c(C(F)(F)F)c2)cc1 [Table 2, Compound 8, 1-[4-(6-Amino-8-vinylpurin-9-yl)phenyl]-3-(4-chloro-3-(tri-fluoromethyl)phenyl)urea]
 | 48 µg/mL (≈ 86.7 µM) | CNc1ncnc2c1ncn2-c1ccc(NC(=O)Nc2cc(C(=O)N3CCN(C)CC3)cc(C(F)(F)F)c2)cc1 [Table 2, Compound 39]
 | 107 µg/mL (≈ 193 µM) | CNc1ncnc2c1ncn2-c1ccc(NC(=O)Nc2ccc(CCN(C)CCN(C)C)c(C(F)(F)F)c2)cc1 [Table 3, Compound 36, 1-(4-{2-[(2-(Dimethylamino)ethyl)-methylamino]-ethyl}-3-(trifluoromethyl)phenyl)-3-[4-(6-(methylamino)-purin-9-yl)phenyl]urea]
0.067 µM |  | O=C(Nc1ccc(Cl)c(C(F)(F)F)c1)N(O)c1ccc(-n2cnc3ncncc32)cc1 [Table 1, Compound 46, 1-(4-Chloro-3-(trifluoromethyl)phenyl)-3-hydroxy-3-(4-purin-7-ylphenyl)urea]
 | 193 µg/mL (≈ 349 µM) | CN1CCN(Cc2cc(NC(=O)Nc3ccc(-n4cnc5c(C(N)=O)nccc54)cc3)cc(C(F)(F)F)c2)CC1 [Table 2, Compound 33, 1-(4-{3-[3-(4-Methylpiperazin-1-ylmethyl)-5-(trifluoromethyl)-phenyl]ureido}-phenyl)-1H-imidazo[4,5-c]pyridine-4-carboxamide]
 | 147 µg/mL (≈ 258 µM) | CNc1ncnc2c1ncn2-c1ccc(NC(=O)Nc2ccc(CCN(C)CCCN(C)C)c(C(F)(F)F)c2)cc1 [Table 3, Compound 38, 1-(4-{2-[(3-(Dimethylamino)propyl)methylamino]ethyl}-3-(trifluoromethyl)phenyl)-3-[4-(6-(methylamino)purin-9-yl)phenyl]urea]
 | 76 µg/mL (≈ 139 µM) | CN(C)CCNC(=O)c1nccc2c1ncn2-c1ccc(NC(=O)Nc2ccc(Cl)c(C(F)(F)F)c2)cc1 [Table 1, Compound 92, 1-(4-[3-(4-Chloro-3-(trifluoro-methyl)phenyl)ureido]phenyl}-1H-imidazo[4,5-c]pyridine-4-carboxylic acid (2-dimethyl-aminoethyl)amide]
 | 104 µg/mL (≈ 188 µM) | CNc1ncnc2c1ncn2-c1ccc(NC(=O)Nc2ccc(CNCCN3CCCC3)c(C(F)(F)F)c2)cc1 [Table 3, Compound 15]
